The target of experiment [1] is T1, PI3Kα (Homo sapiens, UniProt P42336).
T1 construct: Full length p110 subunits of PI3K α, β and δ, N-terminally labeled with polyHis tag; polyHis (N); made in house; host or cells: Sf9 insect cells (baculovirus)
In words: In vitro PI3K AlphaScreen assay, PI3Kα. It counts as biochemical. Particulars: PI(4,5)P2 substrate, 20 minutes at room temperature, read-out: P13Kalpha IC50 um. The protocol:
The PI3K AlphaScreen® assay (PerkinElmer, Waltham, Mass.) measures the activity of a panel of four phosphoinositide 3-kinases: PI3Kα, PI3KIβ, PI3Kγ, and PI3Kδ. Each of these enzymes phosphorylates the 3′-hydroxyl group on phosphatidylinositiol (4,5)-bisphosphate (PIP2) to produce phosphatidylinositol (3,4,5)-trisphosphate (PIP3). This phosphorylation activity is measured using a GST-tagged PIP3 binding protein (Echelon Biosciences, Salt Lake City, Utah), an anti-GST-tagged Acceptor bead, and streptavidin-Donor bead. The interaction of biotinylated-PIP3 analog (IP4) and the PIP3 binding protein brings both Acceptor and Donor beads together producing, upon excitation of the Donor beads at 680 nm, a singlet oxygen species leading to the luminescent AlphaScreen® signal. When PIP3 is produced via phosphorylation of PIP2 by a PI3K, PIP3 competes with biotinylated-PIP3 analog (IP4) for binding to the PIP3 binding protein. In the absence of this interaction, proximity of the Donor and Acceptor beads is decreased, producing a loss of luminescent signal which is […] to PI3K activity. […] The enzyme reaction buffer is made using sterile water (Baxter, Deerfield, Ill.) and 50 mM Tris HCl pH 7, 14 mM MgCl2, 2 mM sodium cholate, and 100 mM NaCl. 2 mM DTT is added fresh the day of the experiment. The AlphaScreen® reaction buffer is made using sterile water and 10 mM Tris HCl pH 7.5, 150 mM NaCl, 0.10% Tween 20, and 30 mM EDTA. 1 mM DTT is added fresh the day of the experiment. The source plates for this assay are 384-well Greiner clear polypropylene plates containing test compounds at 5 mM and diluted 1:2 over 22 points. Columns 23 and 24 contain only DMSO as these are designated for positive and negative controls. Source plates are replicated into 384-well Optiplates (PerkinElmer, Waltham, Mass.), 0.5 μL/well, to make assay-ready plates. The different PI3K isoforms are each diluted in enzyme reaction buffer to 2× working solutions. PI3Kα is diluted to 1.6 nM, PI3Kβ is diluted to 0.8 nM, PI3Kγ is diluted to 15 nM, and PI3Kδ is diluted to 1.6 nM. Two different 2× substrate solutions are made in enzyme reaction buffer. In one solution, PI(4,5)P2 (Echelon Biosciences, Salt Lake City, Utah) is diluted to 10 μM and ATP is diluted to 20 μM. This solution is used in the assays testing PI3Kα and PI3Kβ. In a second solution, PI(4,5)P2 is diluted to 10 μM and ATP is diluted to 80 μM. This solution is used in the assays testing PI3Kγ and PI3Kδ. The AlphaScreen® reaction solutions are made using beads from the anti-GST AlphaScreen® kit (PerkinElmer, Waltham, Mass.). Two solutions are made in Alphascreen reaction buffer to 4× working concentrations. In one solution, biotinylated-IP4 (Echelon Biosciences, Salt Lake City, Utah) is diluted to 40 nM and streptavadin-Donor Beads are diluted to 80 μg/mL. In the second solution, PIP3-binding protein (Echelon Biosciences, Salt Lake City, Utah) is diluted to 40 nM and anti-GST-Acceptor Beads are diluted to 80 μg/mL. 10 μL/well of enzyme reaction buffer is added to Column 24 of the assay ready plates in place of enzyme. This is done for plates in the PI3Kα, β, and δ assays. Using a 384-well dispensing Multidrop (Titertek, Huntsville, Ala.), 10 μL/well of 2× enzyme (PI3Kα, β, δ) is added to Columns 1-23 of the appropriate assay ready plates (for PI3Kγ 10 μL is added to Columns 1-24). 10 μL/well of the appropriate substrate solution (the solution with 20 μM ATP for PI3Kα and β assays, and the solution with […] for PI3Kγ and δ assays) is then added to Columns 1-24 of the plates. Plates are then incubated at room temperature for 20 minutes. In the dark, 10 μL/well of the Donor Bead solution is added to Columns 1-24 of the plates to quench the enzyme reaction. The plates are incubated at room temperature for 30 minutes. Still in the dark, 10 μL/well of the Acceptor Bead solution is also added to Columns 1-24 of the plates. The plates are then incubated in the dark for 1.5 hours.

Experiment [2] has as its target mTOR (Homo sapiens, UniProt P42345). Description: mTOR LanthaScreen (TR-FRET, phosphorylation of 4EBP1). Format: biochemical. The settings on record: phosphorylation of GFP-4E-BP1, 10 μM ATP, 90 minutes. The protocol:
The mTOR LanthaScreen is a TR-FRET assay measuring the phosphorylation of mTOR's substrate 4EBP1. 384 well compound plates were prepared containing 1 μl of compound per well starting at 5 mM and diluted 1:2 across the row, resulting in a 22 well serial dilution. 24 μl of assay buffer (Invitrogen, PV4794) with 2 mM DTT was added to the compound plate in rows 1-24 using the VELOCITY 11™ VPREP™ 384 ST resulting in a DMSO concentration of 4%. The compound plate was mixed and 2.5 μl of serially diluted compound or controls was added to the assay plate (Costar, 3658).
The assay was conducted on the PerkinElmer® FlexDrop PLUS. A 5 μl mix of 800 nM GFP-4E-BP1 (Invitrogen, PV4759) and 20 μM ATP (Amgen) was added to rows 1-24. 2.5 μl of 0.6 μg/ml of mTOR Enzyme (Amgen) was added to rows 1-23. 2.5 μl of assay buffer was added to row 24 for the low control. The final concentration of the compounds was 50 μM serially diluted to 23.84 pM in 1% DMSO. […] The final concentrations in the assay reagents were 400 nM GFP-4E-BP1, 10 μM of ATP and 0.15 μg/ml of mTOR enzyme. The compound, enzyme, and substrate were incubated for 90 minutes. At this point, 10 μl of stop solution was added (20 mM Tris, pH 7.5 (Invitrogen, 15567-027), 0.02% Sodium Azide (Teknova, S0208), 0.01% NP-40 (Roche, 11754599001), 20 mM EDTA (Invitrogen, 15575-038) and 4 nM of Tb-anti-p4E-BP1 (Invitrogen, PV4758)) for a final concentration of 2 nM of Tb-anti-p4E-BP1.
Sixty minutes later the plates were read on the PerkinElmer® EnVision™ 2103 Multilable Reader using the Excitation filter 340 nm and the Emission filters 520 nm and 495 nm.

Experiment [3] concerns phosphorylation of Akt at Serine 473 in U87 MG cells. Description: pAkt AlphaScreen (U87 cell). It counts as cell-based. The settings on record: Homo sapiens, U-87 MG, 2 h; pAkt at Serine 473, U87 MG cells, two hours with compound. The protocol: The pAkt AlphaScreen® assay (PerkinElmer, Waltham, Mass.) determines whether there is phosphorylation of Akt at Serine 473 by recruitment of a phosphospecific antibody. This assay was performed using U87 MG cells. The U87 growth media consists of MEM (Gibco, Carlsbad, Calif.) supplemented with 10% FBS (Gibco), 1× Non-Essential Amino Acids (Gibco,) and 1× Penicillin/Streptomycin/Glutamine (Gibco). The cells were maintained weekly using 0.05% Trypsin (Gibco) and replated in 150 mm TC— Treated Culture Dishes (Corning, Corning, N.Y.).
The first day of the assay, the adherent cells were trypsinized, media was added to the loose cells and cells were mixed to a homogenous mixture. 0.5 ml of the homogenous mixture was counted on the Beckman Coulter® Vi-Cell™ XR (Fullerton, Calif.). 50 frames of cells were counted and the number of viable cells was determined. The cells were then diluted to 0.25 million cells per ml, and centrifuged at 200 rcf for 5 minutes. The media was removed and the cells were reconstituted in fresh media for plating. The cells were plated at 20 μl per well on the PerkinElmer® FlexDrop PLUS in Low Volume 384 Well White Tissue Culture Plates (Corning) with a final cell density of 5K cells per well. The plates were incubated overnight at 37° Celsius, 5% CO2.
On the second day, the compound plates were prepared, the cells were treated with compound and the pAkt reaction mix was added to the cell lysate. 384 well compound plates were prepared containing 1 μl of compound per well starting at 5 mM and diluted 1:2 across the row, resulting in a 22 well serial dilution. 39 μl of growth media was added to the compound plate in rows 1-22 using the PerkinElmer® FlexDrop PLUS resulting in a DMSO concentration of 2.5%. The cell plates and diluted compound plates were put onto the VELOCITY11™ VPREP™ 384 ST where the compound plate was mixed and 5 μl of serially diluted compound or controls was added to the cell plate. The final concentration of the compounds was 25 μM serially diluted to 11.9 pM in 0.5% DMSO.
The cell plates were then incubated with compound for two hours at 37° C., 5% CO2. After two hours, the media in the cell plates was aspirated using the BioTek® ELx405HT plate washer (Winooski, Vt.) removing the majority of media and compound without disturbing the adherent U87 cells. The following assay reagents are components of the SureFire® Akt (Ser 473) Phosphorylation 50K Point Kit (TGR BioSciences, Adelaide, Austalia) and an IgG Detection Kit (PerkinElmer, Waltham, Mass.). 5 μl of 1× Lysis Buffer was added to each well using the PerkinElmer® FlexDrop PLUS. The plates were then incubated at room temperature on a shaker for ten minutes. The AlphaScreen® reaction was prepared under low light conditions (subdued or green light) including p-Aid (Ser 473) Reaction Buffer, Dilution Buffer, Activation Buffer, Acceptor Beads and Donor Beads at a ratio of 40:20:10:1:1 respectively. The AlphaScreen® reaction was added to the cell lysate at 6 μl per well using the PerkinElmer® FlexDrop PLUS. The plates were placed in a humid environment to reduce edge effects and incubated overnight at room temperature with restricted air flow in the dark.
On the final day of the experiment, the plates were read on the PerkinElmer® EnVision™ 2103 Multilable Reader using the standard AlphaScreen® readout. The POC is calculated and the data is analyzed to report the IC50 IP for pAkt at Serine 473.
Activity data for the compounds tested in the PI3K cell based Akt assay is provided in Table 1 under the column heading U87

The values that follow come from patent US20120190666A1, “Heteroaryl Compounds as PIKK Inhibitors” (Amgen Inc., priority 2009, published 2012).

SMILES strings stand for the structures.

T1 sequence (P42336 whole entry): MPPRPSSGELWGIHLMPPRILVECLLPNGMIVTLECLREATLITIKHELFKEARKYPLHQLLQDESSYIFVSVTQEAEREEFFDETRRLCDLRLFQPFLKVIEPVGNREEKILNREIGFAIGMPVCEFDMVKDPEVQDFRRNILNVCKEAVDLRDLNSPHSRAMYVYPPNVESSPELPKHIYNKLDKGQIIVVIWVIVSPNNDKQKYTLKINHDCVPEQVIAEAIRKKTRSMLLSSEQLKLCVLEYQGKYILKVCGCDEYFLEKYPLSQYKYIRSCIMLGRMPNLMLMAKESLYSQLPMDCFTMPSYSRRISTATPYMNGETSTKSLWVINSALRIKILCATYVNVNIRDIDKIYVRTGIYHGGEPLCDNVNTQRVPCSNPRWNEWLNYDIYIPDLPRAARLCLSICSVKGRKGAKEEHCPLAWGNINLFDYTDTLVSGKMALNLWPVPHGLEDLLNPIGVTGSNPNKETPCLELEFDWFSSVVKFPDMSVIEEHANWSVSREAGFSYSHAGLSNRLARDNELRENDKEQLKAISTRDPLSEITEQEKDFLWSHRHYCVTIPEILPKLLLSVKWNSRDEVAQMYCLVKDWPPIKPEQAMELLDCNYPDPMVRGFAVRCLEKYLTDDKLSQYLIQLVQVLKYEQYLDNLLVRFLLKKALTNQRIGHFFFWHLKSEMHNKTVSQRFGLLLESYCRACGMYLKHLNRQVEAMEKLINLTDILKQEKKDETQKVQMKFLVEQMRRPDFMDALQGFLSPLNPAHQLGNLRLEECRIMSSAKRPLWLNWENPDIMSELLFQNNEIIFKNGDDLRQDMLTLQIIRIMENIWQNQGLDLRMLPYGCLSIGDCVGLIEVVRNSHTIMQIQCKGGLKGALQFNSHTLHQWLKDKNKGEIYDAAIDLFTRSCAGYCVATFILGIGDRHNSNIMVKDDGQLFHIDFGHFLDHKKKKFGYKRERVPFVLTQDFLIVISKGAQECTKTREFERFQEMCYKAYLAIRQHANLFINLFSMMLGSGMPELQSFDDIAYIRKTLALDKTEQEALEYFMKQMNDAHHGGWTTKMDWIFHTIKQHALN
T1 sequence (P27986 whole entry partner): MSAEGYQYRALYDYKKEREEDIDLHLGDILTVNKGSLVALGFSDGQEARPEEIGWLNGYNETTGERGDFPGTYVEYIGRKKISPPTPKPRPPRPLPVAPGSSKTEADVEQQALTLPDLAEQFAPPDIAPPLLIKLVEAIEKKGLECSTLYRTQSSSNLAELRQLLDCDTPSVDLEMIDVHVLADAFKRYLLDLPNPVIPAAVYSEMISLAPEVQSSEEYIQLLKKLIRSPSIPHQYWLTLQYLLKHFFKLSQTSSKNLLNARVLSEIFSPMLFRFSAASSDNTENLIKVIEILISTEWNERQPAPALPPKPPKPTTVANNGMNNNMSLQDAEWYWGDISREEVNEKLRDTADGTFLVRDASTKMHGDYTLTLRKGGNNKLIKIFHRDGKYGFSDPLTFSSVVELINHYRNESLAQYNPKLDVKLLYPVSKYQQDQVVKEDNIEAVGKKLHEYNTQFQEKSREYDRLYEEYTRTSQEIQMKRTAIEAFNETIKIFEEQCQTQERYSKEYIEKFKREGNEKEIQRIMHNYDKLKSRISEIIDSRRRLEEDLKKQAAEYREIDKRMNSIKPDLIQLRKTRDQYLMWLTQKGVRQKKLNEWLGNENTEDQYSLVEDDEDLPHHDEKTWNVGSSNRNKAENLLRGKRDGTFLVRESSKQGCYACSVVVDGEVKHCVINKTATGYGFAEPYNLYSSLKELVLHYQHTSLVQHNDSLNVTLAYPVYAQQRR

As to `Cc1nc(N)nc(-c2c(Nc3ccnn3C(=O)N3CCOCC3)nc3ccccn23)n1` [Cpd 201], the IC50 is 1.39 µM in experiment [1] and 0.25 µM in experiment [2].

As to `Cc1nc(N)nc(-c2c(Nc3ccn(C(=O)NCCO)n3)nc3ccccn23)n1` [Cpd 198, 3-((3-(4-amino-6-methyl-1,3,5-triazin-2-yl)imidazo[1,2-a]pyridin-2-yl)amino)-N-(2-hydroxyethyl)-1H-pyrazole-1-carboxamide], the IC50 in experiment [1] turned out to be 2.21 µM; in experiment [2], 0.11 µM.

On to `CNCCNC(=O)n1ccc(Nc2nc3cccnn3c2-c2cc(N)nc(C)n2)n1` [Cpd 258], for which the IC50 in experiment [1] came out at 0.03 µM; in experiment [2], 0.5 µM.

For the compound `Cc1nc(NC(=O)Cc2ccc(F)cc2F)cc(-c2c(Nc3ccn(C)n3)nc3cccnn23)n1` [Cpd 129, 2-(2,4-difluorophenyl)-N-(2-methyl-6-(2-((1-methyl-1H-pyrazol-3-yl)amino)imidazo[1,2-b]pyridazin-3-yl)-4-pyrimidinyl)acetamide], the figures for the IC50 in experiment [1] and in experiment [3] were 4.94 µM and 1.47 µM, respectively.

Take `CNC(=O)c1cccc(Nc2nc3cccnn3c2-c2cc(N)nc(C)n2)c1` [Cpd 334]: the results for the IC50 in experiment [1] and in experiment [3] were 4.94 µM and 0.24 µM, respectively.

With `Cc1nc(N)cc(-c2c(Nc3ccn(S(C)(=O)=O)n3)nc3ccccn23)n1` [Cpd 217, 3-(6-amino-2-methyl-4-pyrimidinyl)-N-(1-(methylsulfonyl)-1H-pyrazol-3-yl)imidazo[1,2-a]pyridin-2-amine], the IC50 in experiment [2] turned out to be 1.74 µM; in experiment [3], 1.18 µM.
